Experimental findings from patent US9765092B2, “Tricyclic piperidine compounds” (ACTELION PHARMACEUTICALS LTD, priority 2013, dated 2017) are described below.

Sequence of human TPH1 (P17752 whole entry): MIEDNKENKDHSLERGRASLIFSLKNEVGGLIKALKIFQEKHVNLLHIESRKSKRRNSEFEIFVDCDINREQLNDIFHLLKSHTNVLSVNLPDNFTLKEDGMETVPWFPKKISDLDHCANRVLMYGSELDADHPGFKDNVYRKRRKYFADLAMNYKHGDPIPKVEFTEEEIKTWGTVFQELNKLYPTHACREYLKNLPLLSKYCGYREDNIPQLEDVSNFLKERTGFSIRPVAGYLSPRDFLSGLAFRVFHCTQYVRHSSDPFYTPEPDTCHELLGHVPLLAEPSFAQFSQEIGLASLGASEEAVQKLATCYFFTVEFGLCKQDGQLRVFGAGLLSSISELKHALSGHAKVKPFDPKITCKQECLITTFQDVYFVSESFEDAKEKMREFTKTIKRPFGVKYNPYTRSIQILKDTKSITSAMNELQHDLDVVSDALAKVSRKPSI

One assay addresses human TPH1 (Homo sapiens (Human), UniProt P17752). The assay is described as follows: Biochemical in vitro assay using fluorescence readout (TPH1 inhibition). Conditions: full length human TPH1, 40 μM L-tryptophan, 15° C., 60 minutes, fluorescence at 540 nm; mean if determined several times.
Take `Cc1nn2c3c(nc2s1)CCN(C(=O)COc1ccc(N(C)CCO)nc1Cl)C3c1ccc(Cl)cc1F` (stereo not drawn) [Example 1.4.13, 1-(5-(4-Chloro-2-fluorophenyl)-2-methyl-7,8-dihydro-[1,3,4]thiadiazolo[2′,3′:2,3]imidazo[4,5-c]pyridin-6(5H)-yl)-2-((2-chloro-6-((2-hydroxyethyl)-(methyl)amino)pyridin-3-yl)oxy)ethanone]: the IC50 was found to be 5 nM.
`Cc1nn2c3c(nc2s1)CCN(C(=O)COc1ccc(N2CCOCC2)nc1Cl)C3c1cnc(N2CC(F)(F)C2)s1` (stereo not drawn) [Example 1.49.1, 2-((2-Chloro-6-morpholinopyridin-3-yl)oxy)-1-(5-(2-(3,3-difluoro-azetidin-1-yl)thiazol-5-yl)-2-methyl-7,8-dihydro-[1,3,4]thiadiazolo[2′,3′:2,3]imidazo[4,5-c]pyridin-6(5H)-yl)-ethanone] displayed an IC50 of 15 nM.
Compound `Cc1nn2c3c(nc2s1)CCN(C(=O)COc1ccc(N2CC4CC2CO4)nc1Cl)C3c1ccc(Cl)cc1F` (stereo not drawn) [Example 1.4.33, 2-((6-(2-Oxa-5-azabicyclo[2.2.1]heptan-5-yl)-2-chloropyridin-3-yl)oxy)-1-(5-(4-chloro-2-fluorophenyl)-2-methyl-7,8-dihydro-[1,3,4]thiadiazolo[2′,3′:2,3]imidazo[4,5-c]pyridin-6(5H)-yl)ethanone] gave an IC50 of 2 nM.
With `Cc1nn2c3c(nc2s1)CCN(C(=O)COc1ccc(N2CC(F)(F)C2)nc1Cl)C3c1ccc(Cl)cc1F` (stereo not drawn) [Example 1.4.18, 1-(5-(4-Chloro-2-fluorophenyl)-2-methyl-7,8-dihydro-[1,3,4]thiadiazolo[2′,3′:2,3]imidazo[4,5-c]pyridin-6(5H)-yl)-2-((2-chloro-6-(3,3-difluoroazetidin-1-yl)-pyridin-3-yl)oxy)ethanone], the IC50 worked out at 3 nM.
Take `Cc1nn2c3c(nc2s1)CCN(C(=O)COc1ccc(N2CC(F)(F)C2)nc1Cl)C3c1cnc(N(C)C)s1` (stereo not drawn) [Example 1.22.8, 2-((2-Chloro-6-(3,3-difluoroazetidin-1-yl)pyridin-3-yl)oxy)-1-(5-(2-(dimethylamino)-thiazol-5-yl)-2-methyl-7,8-dihydro-[1,3,4]thiadiazolo[2′,3′:2,3]imidazo[4,5-c]pyridin-6(5H)-yl)ethanone]: the IC50 was 19 nM.

The assay is the same for the next values; noted with them: human TPH1, fluorescence readout.
The compound `CN(C)C(=O)c1cc(F)c(C2c3c(nc4sccn34)CCN2C(=O)COc2ccc(NS(C)(=O)=O)cc2Cl)s1` (stereo not drawn) [Example 6.9.1, 5-(6-(2-(2-chloro-4-(methylsulfonamido)phenoxy)-acetyl)-5,6,7,8-tetrahydrothiazolo[2′,3′:2,3]imidazo[4,5-c]pyridin-5-yl)-4-fluoro-N,N-dimethylthiophene-2-carboxamide] came in with an IC50 of 2 nM.
Consider `Cc1nn2c3c(nc2s1)CCN(C(=O)COc1ccc(Cl)cc1C)C3c1nc(-c2ccccc2)no1` (stereo not drawn) [Example 1.11.1, 2-(4-chloro-2-methylphenoxy)-1-(2-methyl-5-(3-phenyl-1,2,4-oxadiazol-5-yl)-7,8-dihydro-[1,3,4]thiadiazolo [2′,3′:2,3]imidazo[4,5-c]pyridin-6(5H)-yl)ethanone], for which the IC50 turned out to be 35 nM.
`O=C(COc1cccnc1Cl)N1CCc2nc3sccn3c2C1c1nc2ccccc2s1` (stereo not drawn) [Example 6.12.6, 1-(5-(benzo[d]thiazol-2-yl)-7,8-dihydrothiazolo-[2′,3′:2,3]imidazo[4,5-c]pyridin-6(5H)-yl)-2-((2-chloropyridin-3-yl)oxy)ethanone]: the IC50 was determined as 101 nM.
Regarding `Cc1nn2c3c(nc2s1)CCN(C(=O)COc1ccc(N2CCOCC2)nc1Cl)C3c1coc(-c2ccccc2)n1` (stereo not drawn) [Example 1.12.1, 2-((2-chloro-6-morpholinopyridin-3-yl)oxy)-1-(2-methyl-5-(2-phenyloxazol-4-yl)-7,8-dihydro-[1,3,4]thiadiazolo [2′,3′:2,3]imidazo[4,5-c]pyridin-6(5H)-yl)ethanone], the half-maximal inhibitory concentration (IC50) came to 14 nM.
The same measure, in the same setting: the same measure for `CNS(=O)(=O)c1ccc(OCC(=O)N2CCc3nc4sc(C)nn4c3C2c2ccc(Cl)cc2F)c(Cl)n1` (stereo not drawn) [Example 1.4.60, 6-chloro-5-(2-(5-(4-chloro-2-fluorophenyl)-2-methyl-7,8-dihydro-[1,3,4]thiadiazolo[2′,3′:2,3]imidazo[4,5-c]pyridin-6(5H)-yl)-2-oxoethoxy)-N-methylpyridine-2-sulfonamide]: 36 nM; for `Cc1nn2c3c(nc2s1)CCN(C(=O)COc1ccc(NS(C)(=O)=O)nc1Cl)C3c1sc(C(F)(F)F)nc1C` (stereo not drawn) [Example 1.76.1, N-(6-chloro-5-(2-(2-methyl-5-(4-methyl-2-(trifluoromethyl)thiazol-5-yl)-7,8-dihydro-[1,3,4]thiadiazolo[2′,3′:2,3]imidazo[4,5-c]pyridin-6(5H)-yl)-2-oxoethoxy)pyridin-2-yl)methanesulfonamide]: 20 nM.
For `CCN(CC)C(=O)c1cc(F)c(C2c3c(nc4sc(C)nn34)CCN2C(=O)COc2ccc(NS(C)(=O)=O)nc2Cl)s1` (stereo not drawn) [Example 1.64.1, 5-(6-(2-((2-chloro-6-(methylsulfonamido)pyridin-3-yl)oxy)acetyl)-2-methyl-5,6,7,8-tetrahydro-[1,3,4]thiadiazolo [2′,3′:2,3]imidazo[4,5-c]pyridin-5-yl)-N,N-diethyl-4-fluorothiophene-2-carboxamide], the IC50 came to 21 nM.
Compound `Cc1nn2c3c(nc2s1)CCN(C(=O)COc1ccc(S(N)(=O)=O)cc1)C3c1ccc(C2CC2)cc1F` (stereo not drawn) [Example 1.6.12, 4-(2-(5-(4-cyclopropyl-2-fluorophenyl)-2-methyl-7,8-dihydro-[1,3,4]thiadiazolo[2′,3′:2,3]imidazo[4,5-c]pyridin-6(5H)-yl)-2-oxoethoxy)benzenesulfonamide] gave an IC50 of 390 nM.
`Cc1nn2c3c(nc2s1)CCN(C(=O)COc1ccc(C(=O)N(C)C)nc1Cl)C3c1ncccc1F` (stereo not drawn) [Example 1.35.2, 6-chloro-5-(2-(5-(3-fluoropyridin-2-yl)-2-methyl-7,8-dihydro-[1,3,4]thiadiazolo[2′,3′:2,3]imidazo[4,5-c]pyridin-6(5H)-yl)-2-oxoethoxy)-N,N-dimethylpicolinamide] came in with an IC50 of 45 nM.
For the compound `CNC(=O)c1ccc(C2c3c(nc4sc(C)nn34)CCN2C(=O)COc2ccc(C(=O)N(C)C)nc2Cl)o1` (stereo not drawn) [Example 1.42.1, 6-chloro-N,N-dimethyl-5-(2-(2-methyl-5-(5-(methylcarbamoyl)furan-2-yl)-7,8-dihydro-[1,3,4]thiadiazolo[2′,3′:2,3]imidazo[4,5-c]pyridin-6(5H)-yl)-2-oxoethoxy)picolinamide], the IC50 was determined as 49 nM.
`COc1ccc(C2c3c(nc4sccn34)CCN2C(=O)COc2ccc(CN3CCOCC3)cc2Cl)cc1OC` (stereo not drawn) [Example 6.1.2, 2-(2-chloro-4-(morpholinomethyl)phenoxy)-1-(5-(3,4-dimethoxyphenyl)-7,8-dihydrothiazolo[2′,3′:2,3]-imidazo[4,5-c]pyridin-6(5H)-yl)ethanone] gave an IC50 of 5 nM.
On to `Cc1nn2c3c(nc2s1)CCN(C(=O)COc1cccnc1C)C3c1ccc(C2CC2)cc1F` (stereo not drawn) [Example 1.6.6, 1-(5-(4-cyclopropyl-2-fluorophenyl)-2-methyl-7,8-dihydro-[1,3,4]thiadiazolo[2′,3′:2,3]imidazo[4,5-c]pyridin-6(5H)-yl)-2-((2-methylpyridin-3-yl)oxy)ethanone], for which half-maximal inhibition (IC50) required 25 nM.
`CCOC(=O)c1ncc(C2c3c(nc4sc(C)nn34)CCN2C(=O)COc2ccc(C#N)cc2Cl)s1` (stereo not drawn) [Example 1.30.3, Ethyl 5-(6-(2-(2-chloro-4-cyanophenoxy)acetyl)-2-methyl-5,6,7,8-tetrahydro-[1,3,4]thiadiazolo[2′,3′:2,3]imidazo[4,5-c]pyridin-5-yl)thiazole-2-carboxylate] showed an IC50 of 371 nM.
Compound `Cc1nn2c3c(nc2s1)CCN(C(=O)COc1ccc(C(=O)NC2CC2)nc1Cl)C3c1ccc(OC(F)(F)F)cc1F` (stereo not drawn) [Example 1.77.2, 6-chloro-N-cyclopropyl-5-(2-(5-(2-fluoro-4-(trifluoromethoxy)phenyl)-2-methyl-7,8-dihydro-[1,3,4]thiadiazolo[2′,3′:2,3]imidazo[4,5-c]pyridin-6(5H)-yl)-2-oxoethoxy)picolinamide] displayed an IC50 of 28 nM.
In turn, `Cc1nn2c3c(nc2s1)CCN(C(=O)COc1ccc(C#N)nc1Cl)C3c1ccc(Cl)cc1F` (stereo not drawn) [Example 1.4.9, 6-chloro-5-(2-(5-(4-chloro-2-fluorophenyl)-2-methyl-7,8-dihydro-[1,3,4]thiadiazolo[2′,3′:2,3]imidazo[4,5-c]pyridin-6(5H)-yl)-2-oxoethoxy)picolinonitrile] yielded an IC50 of 36 nM.
For the compound `Cc1nn2c3c(nc2s1)CCN(C(=O)COc1cccnc1C(F)(F)F)C3c1ccc(C2CC2)cc1F` (stereo not drawn) [Example 1.6.13, 1-(5-(4-cyclopropyl-2-fluorophenyl)-2-methyl-7,8-dihydro-[1,3,4]thiadiazolo[2′,3′:2,3]imidazo[4,5-c]pyridin-6(5H)-yl)-2-((2-(trifluoromethyl)pyridin-3-yl)oxy)ethanone], the half-inhibitory concentration (IC50) came to 4 nM.
Still for that read-out and setting: for `Cc1nn2c3c(nc2s1)CCN(C(=O)COc1cccnc1Cl)C3c1ccc(C2CC2)cc1F` (stereo not drawn) [Example 1.6.11, 2-((2-chloropyridin-3-yl)oxy)-1-(5-(4-cyclopropyl-2-fluorophenyl)-2-methyl-7,8-dihydro-[1,3,4]thiadiazolo[2′,3′:2,3]imidazo[4,5-c]pyridin-6(5H)-yl)ethanone] the value was 14 nM.
As to `CCOC(=O)c1ncc(C2c3c(nc4sc(C)nn34)CCN2C(=O)COc2ccc(C(F)(F)F)cc2Cl)s1` (stereo not drawn) [Example 1.30.2, Ethyl 5-(6-(2-(2-chloro-4-(trifluoromethyl)phenoxy)acetyl)-2-methyl-5,6,7,8-tetrahydro-[1,3,4]thiadiazolo [2′,3′:2,3]imidazo[4,5-c]pyridin-5-yl)thiazole-2-carboxylate], inhibition was half-maximal at 442 nM (IC50).
Compound `Cc1nn2c3c(nc2s1)CCN(C(=O)COc1cccc2c1ccn2C)C3c1ccc(Cl)cc1F` (stereo not drawn) [Example 1.4.62, 1-(5-(4-chloro-2-fluorophenyl)-2-methyl-7,8-dihydro-[1,3,4]thiadiazolo[2′,3′:2,3]imidazo[4,5-c]pyridin-6(5H)-yl)-2-((1-methyl-1H-indol-4-yl)oxy)ethan-1-one] yielded an IC50 of 15 nM.

By IC50 is commonly meant the concentration needed to halve the response being measured.
